Test results taken from ChEMBL document CHEMBL6096682, “Discovery of D-Ring-Contracted Artemisinin as a Potent Hydrophobic Tag for Targeted Protein Degradation” (J Med Chem, 2025).
Activity calls are given as the source filed them. No cut-off for these calls is given here.

Tests used:
[1] = molecular target: T1, Estrogen receptor (Homo sapiens) (UniProt P03372); assay: HyT degrader activity at ER-alpha in human MCF7 cells assessed as induction of ER-alpha degradation by measuring decrease in ER-alpha level at 10 uM incubated for 48 hrs followed by drug wash-out and measured after 72 hrs by western blot analysis; assay type: cell-based
T1 sequence (whole entry): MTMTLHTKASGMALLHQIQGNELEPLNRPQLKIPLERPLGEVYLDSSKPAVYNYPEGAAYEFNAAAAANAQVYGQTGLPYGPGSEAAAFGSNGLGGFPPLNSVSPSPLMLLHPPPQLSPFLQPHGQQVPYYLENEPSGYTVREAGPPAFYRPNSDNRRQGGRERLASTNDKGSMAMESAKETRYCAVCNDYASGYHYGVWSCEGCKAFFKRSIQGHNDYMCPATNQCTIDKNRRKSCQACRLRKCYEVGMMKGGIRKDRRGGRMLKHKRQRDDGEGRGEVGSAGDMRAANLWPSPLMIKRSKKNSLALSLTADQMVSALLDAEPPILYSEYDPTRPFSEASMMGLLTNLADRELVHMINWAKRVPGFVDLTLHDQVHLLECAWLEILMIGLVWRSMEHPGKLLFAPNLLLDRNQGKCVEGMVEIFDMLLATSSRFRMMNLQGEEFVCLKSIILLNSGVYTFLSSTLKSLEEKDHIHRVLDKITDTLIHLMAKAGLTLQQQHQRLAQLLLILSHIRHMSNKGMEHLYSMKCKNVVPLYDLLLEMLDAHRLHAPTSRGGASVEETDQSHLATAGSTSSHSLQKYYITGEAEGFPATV

[2] = Hepatotoxicity in Balb/c mouse xenografted with human MCF7 cells assessed as effect on ALT level in serum at 5 to 10 mg/kg, iv measured after 24 hrs; assay type: toxicity, organism-based; settings: in vivo, dose 5-10 mg/kg
MCF7 [3] = assay: Antiproliferative activity against human MCF7 cells overexpressing EGFR assessed as reduction in cell viability incubated for 48 hrs by MTT assay relative to control; assay type: functional
[4] = Toxicity in Balb/c mouse xenografted with human MCF7 cells assessed as effect on hematocrit level at 5 to 10 mg/kg, iv measured after 24 hrs; assay type: organism-based; settings: in vivo, dose 5-10 mg/kg
[5] = Toxicity in Balb/c mouse xenografted with human MCF7 cells assessed as effect on kidneys morphological changes at 5 to 10 mg/kg, iv measured after 24 hrs by Hematoxylin-Eosin staining based analysis; assay type: organism-based; settings: in vivo, dose 5-10 mg/kg
[6] = Hepatotoxicity in Balb/c mouse xenografted with human MCF7 cells assessed as effect on AST level in serum at 5 to 10 mg/kg, iv measured after 24 hrs; assay type: toxicity, organism-based; settings: in vivo, dose 5-10 mg/kg
MCF7 [7] = assay: Antiproliferative activity against human MCF7 cells overexpressing EGFR assessed as reduction in cell viability incubated for 48 hrs by MTT assay; assay type: functional, cell-based; settings: MCF7, 48 h
[8] = molecular target: Estrogen receptor beta (Homo sapiens) (UniProt Q92731); assay: HyT degrader activity at ER-beta in human MCF7 cells assessed as induction of ER-beta degradation by measuring decrease in ER-beta level at 1 to 10 uM incubated for 24 hrs by immunoblot analysis; assay type: cell-based; settings: dose 1-10 µM
Sequence of Estrogen receptor beta (Homo sapiens) (Q92731 whole entry): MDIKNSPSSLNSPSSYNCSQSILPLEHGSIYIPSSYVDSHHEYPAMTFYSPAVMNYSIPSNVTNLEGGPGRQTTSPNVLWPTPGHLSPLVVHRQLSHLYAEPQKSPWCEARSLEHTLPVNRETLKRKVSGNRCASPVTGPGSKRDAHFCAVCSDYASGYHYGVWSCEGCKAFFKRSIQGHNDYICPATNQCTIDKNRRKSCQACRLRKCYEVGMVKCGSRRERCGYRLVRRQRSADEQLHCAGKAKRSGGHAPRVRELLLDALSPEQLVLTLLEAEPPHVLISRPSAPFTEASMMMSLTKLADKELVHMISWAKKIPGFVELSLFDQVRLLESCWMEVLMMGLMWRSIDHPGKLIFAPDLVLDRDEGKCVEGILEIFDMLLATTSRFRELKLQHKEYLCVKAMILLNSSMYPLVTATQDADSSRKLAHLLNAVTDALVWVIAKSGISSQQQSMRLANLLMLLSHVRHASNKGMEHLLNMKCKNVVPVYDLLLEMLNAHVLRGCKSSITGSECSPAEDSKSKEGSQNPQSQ

[9] = molecular target: T1, Estrogen receptor (Homo sapiens); assay: Binding affinity to ER-alpha in human MCF7 cells assessed as increase in thermal stability of protein at 100 uM incubated for 1 hr followed by exposure to heat at 25 to 66 degC for 3 mins and incubation for 3 mins at room temperature by thermal shift binding assay; assay type: cell-based; settings: time 66.0 min
[10] = molecular target: Estrogen receptor beta (Homo sapiens) (UniProt Q92731); assay: Binding affinity to ER-beta in human MCF7 cells at 100 uM incubated for 1 hr followed by exposure to heat at 25 to 66 degC for 3 mins and incubation for 3 mins at room temperature by thermal shift binding assay; assay type: cell-based; settings: time 66.0 min
[11] = molecular target: T1, Estrogen receptor (Homo sapiens); assay: HyT degrader activity at ER-alpha in human MCF7 cells assessed as induction of ER-alpha degradation by measuring decrease in ER-alpha level at 10 uM pretreated with NAE inhibitor, MLN4924 for 2 hrs followed by incubation with compound for 12 hrs by immunoblot analysis; assay type: cell-based
[12] = molecular target: T1, Estrogen receptor (Homo sapiens); assay: HyT degrader activity at ER-alpha in human MCF7 cells assessed as induction of ER-alpha degradation by measuring residual ER-alpha level at 10 uM pretreated with HSP70 inhibitor, VER-155008 for 2 hrs followed by incubation with compound for 12 hrs by immunoblot analysis; assay type: cell-based
MCF7 [13] = assay: Antiproliferative activity against human MCF7 cells assessed as reduction in cell viability incubated for 48 hrs by MTT assay relative to control; assay type: functional
[14] = Nephrotoxicity in Balb/c mouse xenografted with human MCF7 cells assessed as effect on blood urea nitrogen level in serum at 5 to 10 mg/kg, iv measured after 24 hrs; assay type: toxicity, organism-based; settings: in vivo, dose 5-10 mg/kg
MCF7 [15] = assay: Antitumor activity against human MCF7 cells xenografted in Balb/c mouse assessed as inhibition of tumor growth at 10 mg/kg, iv administered every 3 days and measured for 21 days; assay type: functional; settings: MCF7, 504 h, time 21 day, read-out: TGI
[16] = molecular target: T1, Estrogen receptor (Homo sapiens); assay: HyT degrader activity at ER-alpha in human MCF7 cells assessed as induction of ER-alpha degradation at 10 uM incubated for 24 hrs by western blot analysis; assay type: cell-based
[17] = molecular target: T1, Estrogen receptor (Homo sapiens); assay: HyT degrader activity at ER-alpha in human MCF7 cells assessed as induction of ER-alpha degradation by measuring residual ER-alpha level at 10 uM incubated for 12 hrs by immunoblot analysis; assay type: cell-based
[18] = molecular target: T1, Estrogen receptor (Homo sapiens); assay: HyT degrader activity at ER-alpha in human MCF7 cells assessed as induction of ER-alpha degradation incubated for 24 hrs by western blot analysis; assay type: cell-based; settings: dose 0.01-100 µM
[19] = Toxicity in Balb/c mouse xenografted with human MCF7 cells assessed as effect on lungs morphological changes at 5 to 10 mg/kg, iv measured after 24 hrs by Hematoxylin-Eosin staining based analysis; assay type: organism-based; settings: in vivo, dose 5-10 mg/kg

C[C@@H]1CCC2[C@]34OO[C@](C)(CCC13)O[C@@H]4O[C@]2(C)C(=O)NCCCOc1ccc(C(=O)c2c(-c3ccc(O)cc3)sc3cc(O)ccc23)cc1 (some centres undefined)
Activity [1]: inactive | Activity [2]: Non-toxic | inhibition (INH) (MCF7 [3]): 56.7% | Activity [4]: Non-toxic | Activity [5]: Non-toxic | Activity [6]: Non-toxic | IC50 (MCF7 [7]): 4.65 µM | Activity [8]: Active | Activity [9]: Active | Activity [10]: Active; Weak Affinity | Activity [11]: inactive | Activity [12]: 71.9% | inhibition (INH) (MCF7 [13]): 73.5% | Activity [14]: Non-toxic | inhibition in vivo at 10 mg/kg (MCF7 [15]): 112% | Activity [16]: 83.1% | Activity [17]: 23.5% | Activity [18]: Dose-dependent-effect | Activity [19]: Non-toxic
